Assay [1] addresses T1, human T1R2 and mouse T1R3 GPCRs (UniProt Q8TE23+Q925D8).
T1 construct: expressed in transfected cells; host or cells: HEK cells
T1 sequence (Q8TE23 20-839): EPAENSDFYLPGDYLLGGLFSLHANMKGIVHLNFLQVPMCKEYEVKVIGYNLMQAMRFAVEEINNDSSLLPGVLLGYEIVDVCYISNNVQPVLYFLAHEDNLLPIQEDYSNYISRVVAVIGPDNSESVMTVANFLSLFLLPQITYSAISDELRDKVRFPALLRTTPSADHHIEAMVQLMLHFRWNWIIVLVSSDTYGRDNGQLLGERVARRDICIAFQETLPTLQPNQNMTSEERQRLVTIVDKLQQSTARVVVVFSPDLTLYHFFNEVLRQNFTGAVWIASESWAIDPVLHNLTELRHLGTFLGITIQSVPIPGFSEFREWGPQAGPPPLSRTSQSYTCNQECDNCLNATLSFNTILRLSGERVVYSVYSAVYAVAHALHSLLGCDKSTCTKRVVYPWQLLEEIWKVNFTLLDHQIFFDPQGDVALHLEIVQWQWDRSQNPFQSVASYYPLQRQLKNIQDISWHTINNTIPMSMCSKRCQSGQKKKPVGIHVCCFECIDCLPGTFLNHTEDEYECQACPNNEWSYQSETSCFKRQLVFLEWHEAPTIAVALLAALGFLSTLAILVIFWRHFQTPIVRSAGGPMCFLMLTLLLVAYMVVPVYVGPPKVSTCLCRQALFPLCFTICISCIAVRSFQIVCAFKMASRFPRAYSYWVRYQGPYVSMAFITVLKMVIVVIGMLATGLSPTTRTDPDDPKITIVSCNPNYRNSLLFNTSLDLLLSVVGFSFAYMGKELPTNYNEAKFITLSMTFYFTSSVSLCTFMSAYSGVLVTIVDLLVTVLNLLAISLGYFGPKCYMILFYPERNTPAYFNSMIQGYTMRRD
T1 sequence (Q925D8 21-858): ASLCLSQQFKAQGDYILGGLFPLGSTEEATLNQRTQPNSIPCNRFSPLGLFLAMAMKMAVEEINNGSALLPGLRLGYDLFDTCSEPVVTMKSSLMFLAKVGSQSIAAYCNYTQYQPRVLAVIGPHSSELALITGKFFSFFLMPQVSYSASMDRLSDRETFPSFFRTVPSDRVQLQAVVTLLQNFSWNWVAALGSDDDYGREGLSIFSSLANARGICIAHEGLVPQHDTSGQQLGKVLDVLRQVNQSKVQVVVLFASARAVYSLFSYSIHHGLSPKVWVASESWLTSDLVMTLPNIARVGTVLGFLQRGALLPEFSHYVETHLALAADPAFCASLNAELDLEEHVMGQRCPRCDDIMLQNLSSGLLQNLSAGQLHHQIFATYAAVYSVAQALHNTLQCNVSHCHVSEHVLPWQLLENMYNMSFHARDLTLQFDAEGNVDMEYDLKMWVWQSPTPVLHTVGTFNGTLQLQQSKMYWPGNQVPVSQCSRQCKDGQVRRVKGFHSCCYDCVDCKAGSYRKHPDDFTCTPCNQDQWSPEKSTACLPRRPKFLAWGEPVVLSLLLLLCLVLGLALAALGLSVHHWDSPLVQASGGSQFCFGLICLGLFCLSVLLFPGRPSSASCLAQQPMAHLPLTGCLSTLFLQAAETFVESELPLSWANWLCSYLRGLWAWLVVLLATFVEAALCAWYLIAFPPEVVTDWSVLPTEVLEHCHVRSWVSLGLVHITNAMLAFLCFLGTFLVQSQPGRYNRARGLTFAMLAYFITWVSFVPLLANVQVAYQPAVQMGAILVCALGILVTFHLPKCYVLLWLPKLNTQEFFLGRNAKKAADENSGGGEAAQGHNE
Put plainly: HEK cells transfected with human T1R2 and mouse T1R3. Format: cell-based. How it is done: (§1) We generated mice that were homozygous for the T1R2 KO allele, but instead expressed a human T1R2 transgene in the native “T1R2-cells”. A 12 kb genomic clone containing the T1R2 regulatory sequences was fused to a hT1R2 full length cDNA and introduced into T1R2 KO mice. Multiple independent lines were assayed for their selectivity and sensitivity to sweet tastants. To examine expression of hT1R2, we performed two-color fluorescent in situ hybridization experiments in transgenic animals carrying the wild type mT1R2 allele. […] Taken together, these experiments validate T1Rs as key determinants of differences in sweet taste selectivity and specificity between rodents and humans, and further substantiate T1R2+3, and T1R2-expressing cells, as an principal mediator of sweet taste in vivo. Finally, we propose that polymorphisms in both T1R2 and T1R3 are important determinants of human individual sweet taste preferences.
(§2) Modified HEK-293 cells (PEAK^rapid cells; Edge BioSystems, Md.) were grown, transfected with T1Rs and promiscuous G-proteins and assayed for functional responses to tastants by Ca-imaging essentially as described previously (Nelson, G. et al., Cell, 106, 381-390 (2001)). […] Acquisition and analysis of fluorescence images used TILL-Vision software.

The target in assay [2] is T2, human T1R2 and human T1R3 (Homo sapiens, UniProt Q7RTX0+Q8TE23).
T2 construct: expressed in transfected cells; host or cells: cells (HEK inferred from the preceding sentence and b309)
T2 sequence (Q8TE23 20-839): T1 sequence (Q8TE23 20-839)
T2 sequence (Q7RTX0 21-852): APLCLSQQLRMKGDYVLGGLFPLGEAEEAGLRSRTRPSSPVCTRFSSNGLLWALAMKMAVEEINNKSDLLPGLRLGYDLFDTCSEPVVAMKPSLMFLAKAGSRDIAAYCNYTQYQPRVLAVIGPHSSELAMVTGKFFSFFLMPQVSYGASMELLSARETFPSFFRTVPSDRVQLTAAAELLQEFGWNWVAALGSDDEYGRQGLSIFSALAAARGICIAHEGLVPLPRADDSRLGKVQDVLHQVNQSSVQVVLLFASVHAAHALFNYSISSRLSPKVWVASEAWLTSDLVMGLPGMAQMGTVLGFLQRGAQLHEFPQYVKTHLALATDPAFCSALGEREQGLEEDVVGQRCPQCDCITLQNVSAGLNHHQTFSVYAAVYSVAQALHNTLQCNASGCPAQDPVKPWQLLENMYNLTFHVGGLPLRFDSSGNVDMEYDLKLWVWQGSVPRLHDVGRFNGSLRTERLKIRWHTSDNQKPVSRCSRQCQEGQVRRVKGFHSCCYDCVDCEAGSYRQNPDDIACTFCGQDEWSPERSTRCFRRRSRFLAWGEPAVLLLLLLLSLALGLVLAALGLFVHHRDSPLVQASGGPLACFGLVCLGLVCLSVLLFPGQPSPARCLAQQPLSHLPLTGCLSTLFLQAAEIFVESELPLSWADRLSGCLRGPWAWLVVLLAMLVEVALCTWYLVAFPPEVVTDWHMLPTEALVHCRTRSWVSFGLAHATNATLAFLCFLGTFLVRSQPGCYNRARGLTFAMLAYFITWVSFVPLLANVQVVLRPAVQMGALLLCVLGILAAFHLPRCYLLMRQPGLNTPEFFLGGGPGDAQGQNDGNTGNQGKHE
As to the kind of experiment: Cells transfected with human T1R2 and human T1R3. Format: cell-based. The protocol:
as §1, §2

For assay [3], the system named is T1R2 KO mice expressing a human T1R2 gene. As to the kind of experiment: Behavioral taste responses of mice expressing a human T1R2 transgene. Format: in vivo, mouse. Conditions: humanized T1R2 mice (T1R2 KO + hT1R2 transgene); monellin ~10 uM, thaumatin ~5 uM, aspartame 10 mM, glycyrrhizic acid 500 uM, neohesperidin dihydrochalcone 400 uM.
Assay [4] relates to humans. Conditions: sub-millimolar concentrations; cited from earlier work.
In assay [5] the test system is rodents. Conditions: 100 times higher concentrations than sweet to humans; cited from earlier work.

`COc1ccc(CCC(=O)c2c(O)cc(O[C@@H]3O[C@H](CO)[C@@H](O)[C@H](O)[C@H]3O[C@@H]3O[C@@H](C)[C@H](O)[C@@H](O)[C@H]3O)cc2O)cc1O` [neohesperidin dihydrochalcone]: the values for the cell response result in assay [1] and in assay [2] were “do not respond” and “robustly respond”, respectively. In addition, the “behavioral response to human sweet tastants” value in assay [3] is “still do not respond”. The “sweet taste to humans” value in assay [4] was “taste sweet”. The preference in rodents result in assay [5] is recorded as “no preference”.

The record behind these values is US7459277B2, “Mammalian T1R3 sweet taste receptors” (The Regents of the University of California, priority 2003, dated 2008).
